Assay results reported in ChEMBL document CHEMBL3046624, “Synthesis, single crystal X-ray studies and antimicrobial activities of novel Indole barbiturates” (Med Chem Res, 2012).
The source made the active and inactive calls. No cut-off for these calls is given here.

Experiments:
Format in all cases: functional, organism-based
Bacillus subtilis [1] = assay: Growth inhibition of Bacillus subtilis at 200 ug/ml by cup plate method
Proteus vulgaris [2] = assay: Growth inhibition of Proteus vulgaris at 300 ug/ml by cup-plate method
Escherichia coli [3] = assay: Growth inhibition of Escherichia coli at 300 ug/ml by cup-plate method
Saccharomyces cerevisiae [4] = assay: Growth inhibition of Saccharomyces cerevisiae at 200 ug/ml by cup-plate method
Staphylococcus aureus [5] = assay: Growth inhibition of Staphylococcus aureus at 100 ug/ml by cup-plate method
Candida albicans [6] = assay: Growth inhibition of Candida albicans at 200 ug/ml by cup-plate method
Proteus vulgaris [7] = assay: Growth inhibition of Proteus vulgaris at 100 ug/ml by cup-plate method
Escherichia coli [8] = assay: Growth inhibition of Escherichia coli at 100 ug/ml by cup-plate method
Pseudomonas aeruginosa [9] = assay: Growth inhibition of Pseudomonas aeruginosa at 200 ug/ml by cup-plate method
Candida albicans [10] = assay: Growth inhibition of Candida albicans at 100 ug/ml by cup-plate method
Escherichia coli [11] = assay: Growth inhibition of Escherichia coli at 200 ug/ml by cup-plate method
Proteus vulgaris [12] = assay: Growth inhibition of Proteus vulgaris at 200 ug/ml by cup-plate method
Bacillus subtilis [13] = assay: Growth inhibition of Bacillus subtilis at 300 ug/ml by cup plate method
Saccharomyces cerevisiae [14] = assay: Growth inhibition of Saccharomyces cerevisiae at 300 ug/ml by cup-plate method
Bacillus subtilis [15] = assay: Growth inhibition of Bacillus subtilis at 100 ug/ml by cup plate method
Candida albicans [16] = assay: Growth inhibition of Candida albicans at 300 ug/ml by cup-plate method
Pseudomonas aeruginosa [17] = assay: Growth inhibition of Pseudomonas aeruginosa at 100 ug/ml by cup-plate method
Staphylococcus aureus [18] = assay: Growth inhibition of Staphylococcus aureus at 300 ug/ml by cup-plate method
Saccharomyces cerevisiae [19] = assay: Growth inhibition of Saccharomyces cerevisiae at 100 ug/ml by cup-plate method
Pseudomonas aeruginosa [20] = assay: Growth inhibition of Pseudomonas aeruginosa at 300 ug/ml by cup-plate method
Staphylococcus aureus [21] = assay: Growth inhibition of Staphylococcus aureus at 200 ug/ml by cup-plate method

Row | SMILES | growth inhibition (GI) (Bacillus subtilis [1]) | growth inhibition (GI) (Proteus vulgaris [2]) | growth inhibition (GI) (Escherichia coli [3]) | growth inhibition (GI) (Saccharomyces cerevisiae [4]) | growth inhibition (GI) (Staphylococcus aureus [5]) | growth inhibition (GI) (Candida albicans [6]) | growth inhibition (GI) (Proteus vulgaris [7]) | growth inhibition (GI) (Escherichia coli [8]) | growth inhibition (GI) (Pseudomonas aeruginosa [9]) | growth inhibition (GI) (Candida albicans [10]) | growth inhibition (GI) (Escherichia coli [11]) | growth inhibition (GI) (Proteus vulgaris [12]) | growth inhibition (GI) (Bacillus subtilis [13]) | growth inhibition (GI) (Saccharomyces cerevisiae [14]) | growth inhibition (GI) (Bacillus subtilis [15]) | growth inhibition (GI) (Candida albicans [16]) | growth inhibition (GI) (Pseudomonas aeruginosa [17]) | growth inhibition (GI) (Staphylococcus aureus [18]) | growth inhibition (GI) (Saccharomyces cerevisiae [19]) | growth inhibition (GI) (Pseudomonas aeruginosa [20]) | other results
1 | CCn1c(-c2ccccc2)c(C=C2C(=O)NC(=O)NC2=O)c2ccccc21 | inactive | inactive | inactive | Active | inactive | Active | inactive | inactive | Active | Active | inactive | inactive | Active | Active | inactive | Active | Active | inactive | Active | Active | growth inhibition (GI) (Staphylococcus aureus [21]): inactive
2 | O=C1NC(=O)C(=Cc2c(-c3ccccc3)n(CC(=O)c3ccccc3)c3ccccc23)C(=O)N1 | inactive | Active | inactive | Active | inactive | inactive | Active | inactive | Active | inactive | inactive | inactive | inactive | Active | inactive | inactive | Active | inactive | Active | Active | growth inhibition (GI) (Staphylococcus aureus [21]): inactive
3 | CCCCn1c(-c2ccccc2)c(C=C2C(=O)NC(=O)NC2=O)c2ccccc21 | Active | Active | Active | inactive | Active | Active | Active | Active | inactive | Active | Active | Active | Active | inactive | Active | Active | inactive | Active | inactive | inactive | growth inhibition (GI) (Staphylococcus aureus [21]): Active
4 | COc1ccc(C(=O)Cn2c(-c3ccccc3)c(C=C3C(=O)NC(=O)NC3=O)c3ccccc32)cc1 | inactive | Active | inactive | inactive | inactive | Active | Active | inactive | Active | Active | inactive | Active | Active | Active | inactive | Active | Active | inactive | inactive | Active | growth inhibition (GI) (Staphylococcus aureus [21]): inactive
5 | C=CCn1c(-c2ccccc2)c(C=C2C(=O)NC(=O)NC2=O)c2ccccc21 | Active | Active | Active | Active | Active | Active | Active | Active | Active | Active | Active | Active | Active | Active | Active | Active | Active | Active | Active | Active | growth inhibition (GI) (Staphylococcus aureus [21]): Active
6 | CC(=O)N1CCN(c2ccc(OCC3COC(Cn4ccnc4)(c4ccc(Cl)cc4Cl)O3)cc2)CC1 (stereo not given) | – | – | – | Active | – | Active | – | – | – | Active | – | – | – | Active | – | Active | – | – | Active | – | –
7 | CC1(C)S[C@@H]2[C@H](NC(=O)[C@H](N)c3ccccc3)C(=O)N2[C@H]1C(=O)O | Active | Active | Active | – | Active | inactive | Active | Active | Active | inactive | Active | Active | Active | – | Active | inactive | Active | Active | – | Active | growth inhibition (GI) (Staphylococcus aureus [21]): Active
8 | O=C1NC(=O)C(=Cc2c(-c3ccccc3)n(CC(=O)c3ccc(Cl)cc3)c3ccccc23)C(=O)N1 | Active | Active | Active | Active | Active | Active | Active | Active | Active | Active | Active | Active | Active | Active | Active | Active | Active | Active | Active | Active | growth inhibition (GI) (Staphylococcus aureus [21]): Active
